Target: KIF18A (Homo sapiens (Human), UniProt Q8NI77)
Test: KIF18A ATPase activity under tubulin stimulation (ADP-Glo assay)
Assay type: biochemical
Conditions: KIF18A 30 nM, ATP 150 μM, pig microtubules
Procedure: This experiment assesses the inhibitory effect of the compounds of the present disclosure on the KIF18A target according to the IC50 values by measuring the KIF18A ATPase activity under tubulin stimulation with the presence of the compounds.
• 1. Preparation of 30 mL of reaction buffer: • (1) 450 μL 1M Tris-HCl (pH=7.5)+300 μL 1M MgCl2+30 μL 10% Pluronic F-68 (ThermoFisher, 24040032-100 ml); • (2) adjusting pH to 7.5, and adding water to adjust the volume to 30 mL. • 2. Preparation of a 5 mg/mL pig microtubule (Microtubules; MT) (Cytoskeleton Inc, MT002) stock solution: • (1) 10 mL PM buffer=150 μL 1 M PIPES (pH 7.0)+20 μL 0.5 mM MgCl2+100 μL 2 mM Taxol (Cytoskeleton Inc, TXD01)+9730 μL water. • (2) MT ([…]): Adding 100 μL PM buffer to prepare a 5 mg/mL stock solution. Keeping the MT (Cytoskeleton Inc, MT002) at room temperature for 10-15 minutes, gently mixing and storing same at −80° C. • 3. Preparation of 2 mL of kinase buffer: 2 mL reaction buffer+1 μL 2 mM Taxol (Cytoskeleton Inc, TXD01)+12 μL 5 mg/mL MT (Cytoskeleton Inc, MT002). • 4. Preparation of 2×KIF18A (30 nM) (ChemPartner, CPB-P22-31645) working solution: 2.4 μL 10 μM KIF18A (ChemPartner, CPB-P22-31645)+800 μL 1× kinase buffer. • 5. Preparation of 2×ATP (150 μM) (Promega, G9101) working solution: 12 μL 10 mM ATP+800 μL 1× kinase buffer. • 6. 25 nL of compound was transferred to a 384-well plate using Echo650. • 7. 2.5 μL of 2×KIF18A from Step 4 (final concentration of 30 nM) was added to the 384-well plate and the plate was incubated at 25° C. for 15 minutes. • 8. 2.5 μL of 2×ATP from Step 5 (final concentration of 150 μM) was added to the 384-well plate and the plate was incubated at 25° C. for 15 minutes. • 9. 5 μL ADP-Glo™ Reagent (Promega, G9101) was added to the 384-well plate and the plate was incubated at 25° C. for 40 minutes. • 10. 10 μL of kinase detection reagent (Promega, G9101) was added to the 384-well plate and the plate was incubated at 25° C. for 40 minutes. • 11. Luminescence values were measured using the EnVision Xcite Multilabel Reader (PerkinElmer, 2105-0020).

KIF18A, sequence (Q8NI77 whole entry): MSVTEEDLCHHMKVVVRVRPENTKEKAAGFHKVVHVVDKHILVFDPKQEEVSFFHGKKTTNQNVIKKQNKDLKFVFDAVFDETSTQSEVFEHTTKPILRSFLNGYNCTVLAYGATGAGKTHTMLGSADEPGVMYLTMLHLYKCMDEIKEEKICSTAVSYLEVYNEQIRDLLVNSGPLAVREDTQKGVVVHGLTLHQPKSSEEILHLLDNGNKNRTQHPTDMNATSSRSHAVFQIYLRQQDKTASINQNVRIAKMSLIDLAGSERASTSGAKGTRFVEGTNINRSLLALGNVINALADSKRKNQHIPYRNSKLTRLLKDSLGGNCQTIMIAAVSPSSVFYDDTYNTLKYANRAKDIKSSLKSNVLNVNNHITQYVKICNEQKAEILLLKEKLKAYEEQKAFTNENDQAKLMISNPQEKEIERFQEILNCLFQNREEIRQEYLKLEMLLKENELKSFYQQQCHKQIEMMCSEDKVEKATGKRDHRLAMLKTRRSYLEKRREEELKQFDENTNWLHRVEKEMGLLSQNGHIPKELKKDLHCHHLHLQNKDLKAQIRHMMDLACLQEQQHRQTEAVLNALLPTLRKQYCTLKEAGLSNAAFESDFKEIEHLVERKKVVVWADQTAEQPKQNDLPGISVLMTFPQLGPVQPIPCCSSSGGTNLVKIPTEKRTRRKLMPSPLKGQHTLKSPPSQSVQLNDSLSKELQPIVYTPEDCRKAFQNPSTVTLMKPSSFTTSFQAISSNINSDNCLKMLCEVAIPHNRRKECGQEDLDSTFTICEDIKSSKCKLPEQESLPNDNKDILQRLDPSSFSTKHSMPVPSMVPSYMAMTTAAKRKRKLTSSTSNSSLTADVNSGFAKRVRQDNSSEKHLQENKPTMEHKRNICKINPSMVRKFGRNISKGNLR
KIF18A, sequence (P02550 whole entry partner): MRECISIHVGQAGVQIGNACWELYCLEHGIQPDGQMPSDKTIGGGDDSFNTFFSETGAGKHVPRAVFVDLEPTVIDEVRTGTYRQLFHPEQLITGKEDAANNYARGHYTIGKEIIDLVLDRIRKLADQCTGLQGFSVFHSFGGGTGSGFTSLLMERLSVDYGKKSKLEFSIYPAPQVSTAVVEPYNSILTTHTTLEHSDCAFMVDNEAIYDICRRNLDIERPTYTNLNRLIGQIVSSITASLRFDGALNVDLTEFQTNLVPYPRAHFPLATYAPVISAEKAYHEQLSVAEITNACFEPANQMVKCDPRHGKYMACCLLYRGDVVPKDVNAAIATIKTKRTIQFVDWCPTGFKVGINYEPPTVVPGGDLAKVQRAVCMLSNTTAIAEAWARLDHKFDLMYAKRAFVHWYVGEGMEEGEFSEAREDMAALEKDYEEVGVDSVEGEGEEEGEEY
KIF18A, sequence (P02554 whole entry partner): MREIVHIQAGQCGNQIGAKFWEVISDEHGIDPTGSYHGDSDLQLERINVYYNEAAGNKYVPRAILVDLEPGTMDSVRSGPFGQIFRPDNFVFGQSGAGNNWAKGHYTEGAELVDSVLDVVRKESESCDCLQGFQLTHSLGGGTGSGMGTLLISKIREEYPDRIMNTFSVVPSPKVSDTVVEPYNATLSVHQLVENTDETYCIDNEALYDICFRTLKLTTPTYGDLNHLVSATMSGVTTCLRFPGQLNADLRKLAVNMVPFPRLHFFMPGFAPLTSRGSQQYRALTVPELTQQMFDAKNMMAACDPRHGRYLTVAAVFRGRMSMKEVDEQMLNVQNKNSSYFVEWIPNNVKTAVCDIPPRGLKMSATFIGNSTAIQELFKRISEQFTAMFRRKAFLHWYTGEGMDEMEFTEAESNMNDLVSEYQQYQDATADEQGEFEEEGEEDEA

Compound	IC50 [nM]
Nc1cc(NS(=O)(=O)CCO)cc(N2CCC3(CC2)CC3)c1C(=O)Nc1cccc2c1CCN2CC1CC1 [Example 42]	50 to 500
CN1CCCc2c(NC(=O)c3ccc(NS(=O)(=O)CCO)cc3N3CCC4(CC3)CC4)ccnc21 [Example 7, 4-(2-hydroxyethyl)sulfonamido-N-(8-methyl-5,6,7,8-tetrahydro-1,8-naphthyridin-4-yl)-2-(6-azaspiro[2.5]octan-6-yl)benzamide]	50 to 500
CNc1cc(NS(=O)(=O)CCO)cc(N2CCC3(CC2)CC3)c1C(=O)Nc1cccc2c1ccn2CC1CC1 [Example 39]	50 to 500
O=C(Nc1ccc2c(c1)N(CC1CC1)CC2)Nc1ccc(NS(=O)(=O)CCO)cc1N1CCC2(CC1)CC2 [Example 150, N-(4-(3-(1-(cyclopropylmethyl)indolin-6-yl)urea)-3-(6-azaspiro[2.5]octan-6-yl)phenyl)-2-hydroxyethane-1-sulfonamide]	> 5000
O=C(Nc1cnc2n1CCCC2)c1ccc(NS(=O)(=O)CCO)cc1N1CCC2(CC1)CC2 [Example 19, 4-((2-hydroxyethyl)sulfonamido)-2-(6-azaspiro[2.5]octan-6-yl)-N-(5,6,7,8-tetrahydroimidazo[1,2-a]pyridin-3-yl)benzamide]	> 5000
O=C(Nc1ccnc2c1CCN2CC1CC1)c1ccc(NS(=O)(=O)CCO)cc1N1CCC2(CC1)CC2 [Example 32, N-(1-(cyclopropylmethyl)-2,3-dihydro-1H-pyrrolo[2,3-b]pyridin-4-yl)-4-((2-hydroxyethyl)sulfanilamido)-2-(6-azaspiro[2.5]octan-6-yl)4-benzamide]	50 to 500
O=C(Nc1cccc2c1CCN2CC1CC1)c1ccc(NS(=O)(=O)CCO)c2c1OCCO2 [Example 25, N-(1-(cyclopropylmethyl)indolin-4-yl)-8-((2-hydroxyethyl)sulfonamido)-2,3-dihydrobenzo[b][1,4]dioxine-5-carboxamide]	> 5000
O=C(Nc1cccc2c1CCN2CC1CC1)c1ccc(NS(=O)(=O)CCO)cc1OC1CCCC1 [Example 30, 2-(cyclopentoxy)-N-(1-(cyclopropylmethyl)indolin-4-yl)-4-((2-hydroxyethyl)sulfonamide)benzamide]	500 to 5000
O=C(Nc1ncnc2c1ccn2CC1CC1)c1ccc(NS(=O)(=O)CCO)cc1N1CCC2(CC1)CC2 [Example 34, N-(7-(cyclopropylmethyl)-7H-pyrrolo[2,3-d]pyrimidin-4-yl)-4-((2-hydroxyethyl)sulfonamido)-2-(6-azaspiro[2.5]octan-6-yl)benzamide]	500 to 5000
O=C(Nc1ccnc2c1ccn2CC1CC1)c1ccc(NS(=O)(=O)CCO)cc1N1CCC2(CC1)CC2 [Example 33, N-(1-(cyclopropylmethyl)-1H-pyrrolo[2,3-b]pyridin-4-yl)-4-((2-hydroxyethyl)sulfanilamido)-2-(6-azaspiro[2.5]octan-6-yl)4-benzamide]	≤ 50
O=C(Nc1cccc2c1CCN2CC1CC1)c1ccc(NS(=O)(=O)CCO)cc1OC1CCC(F)(F)CC1 [Example 29, N-(1-(cyclopropylmethyl)indolin-4-yl)-2-((4,4-difluorocyclohexyl)oxy)-4-((2-hydroxyethyl)sulfonamide)benzamide]	> 5000
O=C(Nc1nccc2c1cc1n2CCOC1)c1ccc(NS(=O)(=O)CCO)cc1N1CCC2(CC1)CC2 [Example 306, N-(3,4-dihydro-1H-pyridino[3′,4′:4,5]pyrrolo[2,1-c][1,4]oxazin-9-yl)-4-((2-hydroxyethyl)sulfonamido)-2-(6-azaspiro[2.5]oct-6-yl)benzamide]	> 5000
O=C(Nc1ccnc(N2CCC(F)(F)CC2)c1)c1ccc(NS(=O)(=O)CCO)cc1OC1CCCC1 [Example 28, 2-(cyclopentoxy)-N-(2-(4,4-difluoropiperidin-1-yl)pyridin-4-yl)-4-((2-hydroxyethyl)sulfonamide)benzamide]	500 to 5000
CC1(Cn2ccc3c(NC(=O)c4ccc(NS(=O)(=O)CCO)cc4N4CCC5(CC4)CC5)cccc32)CC1 [Example 285, 4-((2-hydroxyethyl)sulfonamido)-N-(1-((1-methylcyclopropyl)methyl)-1H-indol-4-yl)-2-(6-azaspiro[2.5]oct-6-yl)benzamide]	50 to 500
O=C(Nc1cccc2c1CCCCN2CC1CC1)c1ccc(NS(=O)(=O)CCO)cc1N1CCC2(CC1)CC2 [Example 12]	500 to 5000
Cc1cc(NC(=O)c2ccc(NS(=O)(=O)CCO)cc2N2CCC3(CC2)CC3)c2ccn(CC3CC3)c2n1 [Example 37, N-(1-(cyclopropylmethyl)-6-methyl-1H-pyrrolo[2,3-b]pyridin-4-yl)-4-((2-hydroxyethyl)sulfonamido)-2-(6-azaspiro[2.5]oct-6-yl)benzamide]	50 to 500
O=C(Nc1ccnc(N2CCC(F)(F)CC2)c1)c1ccc(NS(=O)(=O)CCO)cc1OC1CCOCC1 [Example 23, N-(2-(4,4-difluoropiperidin-1-yl)pyridin-4-yl)-4-((2-hydroxyethyl)sulfonamide)-2-((tetrahydro-2H-pyran-4-yl)oxy)benzamide]	> 5000
CC1(NS(=O)(=O)c2ccc(C(=O)Nc3cccc4c3ccn4CC3CC3)c(N3CCC4(CC3)CC4)c2)COC1 [Example 44, N-(1-(cyclopropylmethyl)-1H-indol-4-yl)-4-(N-(3-methyloxetan-3-yl)sulfamoyl)-2-(6-azaspiro[2.5]oct-6-yl)benzamide]	50 to 500
O=C(Nc1ccnc2c1CCCN2CC1CC1)c1ccc(NS(=O)(=O)CCO)cc1N1CCC2(CC1)CC2 [Example 8, 4-(2-hydroxyethyl)sulfonamido-N-(8-cyclopropylmethyl-5,6,7,8-tetrahydro-1,8-naphthyridin-4-yl)-2-(6-azaspiro[2.5]octan-6-yl)benzamide]	50 to 500
O=C(Nc1cccc2c1ccn2CC1CC1)c1ccc(NS(=O)(=O)CCO)nc1N1CCC2(CC1)CC2 [Example 38, N-(1-(cyclopropylmethyl)-1H-indol-4-yl)-6-((2-hydroxyethyl)sulfonamido)-2-(6-azaspiro[2.5]oct-6-yl)nicotinamide]	50 to 500
COC1c2cc3c(NC(=O)c4ccc(NS(=O)(=O)CCO)cc4N4CCC5(CC4)CC5)cccc3n2CCC1(F)F (single isomer, unassigned) [Compound 385-P2, N-(8,8-difluoro-9-(methoxy-d3)-6,7,8,9-tetrahydropyridino[1,2-a]indol-1-yl)-4-((2-hydroxyethyl)sulfonamido)-2-(6-azaspiro[2.5]oct-6-yl)benzamide]	50 to 500
CC(C)(C)Cn1ccc2c(NC(=O)c3ccc(NS(=O)(=O)CCO)cc3N3CCC4(CC3)CC4)cccc21 [Example 281, 4-((2-hydroxyethyl)sulfonamido)-N-(1-neopentyl-1H-indol-4-yl)-2-(6-azaspiro[2.5]octan-6-yl)benzamide]	500 to 5000
O=C(Nc1ccc2c(c1)CCN2CC1CC1)Nc1ccc(NS(=O)(=O)CCO)cc1N1CCC2(CC1)CC2 [Example 151, N-(4-(3-(1-(cyclopropylmethyl)indolin-5-yl)urea)-3-(6-azaspiro[2.5]octan-6-yl)phenyl)-2-hydroxyethane-1-sulfonamide]	> 5000
O=C(Nc1ccnc(N2CCC(F)(F)CC2)c1)c1ccc(NS(=O)(=O)CCO)cc1OC1CCC(F)(F)CC1 [Example 24, 2-((4,4-difluorocyclohexyl)oxy)-N-(2-(4,4-difluoropiperidin-1-yl)pyridin-4-yl)-4-((2-hydroxyethyl)sulfonamide)benzamide]	500 to 5000
CN1CCc2c(NC(=O)c3ccc(NS(=O)(=O)CCO)cc3N3CCC4(CC3)CC4)cccc21 [Example 6, 4-(N-(2-hydroxyethyl)sulfonamido)-N-(1-methylindolin-4-yl)-2-(6-azaspiro[2.5]octan-6-yl)benzamide]	50 to 500
CNc1cc(NS(=O)(=O)CCO)cc(N2CCC3(CC2)CC3)c1C(=O)Nc1ccnc2c1ccn2CC1CC1 [Example 40]	50 to 500
O=C(Nc1cccc2c1CCN2CC1CCC1)c1ccc(NS(=O)(=O)CCO)cc1N1CCC2(CC1)CC2 [Example 14, N-(1-(cyclobutylmethyl)dihydroindol-4-yl)-4-((2-hydroxyethyl)sulfonamido)-2-(6-azaspiro[2.5]octan-6-yl)benzamide]	50 to 500
Cc1cc(NC(=O)c2ccc(NS(=O)(=O)CCO)cc2OC2CC3(CCC3)C2)nc(N2CCC(F)(F)CC2)n1 [Example 26, N-(2-(4,4-difluoropiperidin-1-yl)-6-methylpyrimidin-4-yl)-4-((2-hydroxyethyl)sulfonamido)-2-(spiro[3.3]heptan-2-yloxy)benzamide]	50 to 500

— patent US20260070887A1 (Shenzhen Zhongge Biological Technology Co., Ltd., priority 2022, published 2026)
